Test system: MV-4-11 cells
Test: Gene expression microarray analysis (Affymetrix PrimeView) and GSEA
Assay type: cell-based, human
Parameters: RFU PODN (11730768_x_at) / Fold change /veh PODN (11730768_x_at) / RFU LINC00158 (11744669_a_at) / Fold change /veh LINC00158 (11744669_a_at) / RFU DUSP10 (11751237_a_at) / Fold change /veh DUSP10 (11751237_a_at) / RFU ID3 (11757404_x_at) / Fold change /veh ID3 (11757404_x_at) / RFU PLEKHG5 (11737974_s_at) / Fold change /veh PLEKHG5 (11737974_s_at) / RFU LRRC4B (11730491_at) / Fold change /veh LRRC4B (11730491_at) / RFU GIMAP4 (11747438_a_at) / Fold change /veh GIMAP4 (11747438_a_at) / RFU KRT8 (11758183_x_at) / Fold change /veh KRT8 (11758183_x_at) / RFU CNN1 (11734310_a_at) / Fold change /veh CNN1 (11734310_a_at) / RFU VPS37D (11726825_at) / Fold change /veh VPS37D (11726825_at) / RFU C10orf10 (11716522_x_at) / Fold change /veh C10orf10 (11716522_x_at) / RFU KIR2DL2 /// KIR2DL4 /// KIR2DL5A /// KIR2DL5B /// KIR2DS1 /// KIR2DS2 /// KIR2DS3 /// KIR2DS4 /// KIR3DL3 /// KIR3DL3 /// KIR3DS1 (11738374_at) / Fold change /veh KIR2DL2 /// KIR2DL4 /// KIR2DL5A /// KIR2DL5B /// KIR2DS1 /// KIR2DS2 /// KIR2DS3 /// KIR2DS4 /// KIR3DL3 /// KIR3DL3 /// KIR3DS1 (11738374_at) / RFU C1QL1 (11718748_at) / Fold change /veh C1QL1 (11718748_at) / RFU TMPRSS4 (11747572_a_at) / Fold change /veh TMPRSS4 (11747572_a_at) / RFU HAMP (11756126_x_at) / Fold change /veh HAMP (11756126_x_at) / RFU RNFT2 (11725882_a_at) / Fold change /veh RNFT2 (11725882_a_at) / RFU NR4A2 (11747474_a_at) / Fold change /veh NR4A2 (11747474_a_at) / RFU ABCC12 (11746883_a_at) / Fold change /veh ABCC12 (11746883_a_at) / RFU TMEM136 (11760407_x_at) / Fold change /veh TMEM136 (11760407_x_at) / RFU CLDN22 /// WWC2 (11732394_at) / Fold change /veh CLDN22 /// WWC2 (11732394_at) / RFU HLA-DPB1 (11760878_x_at) / Fold change /veh HLA-DPB1 (11760878_x_at) / RFU SPINT1 (11716480_a_at) / Fold change /veh SPINT1 (11716480_a_at) / RFU GAP43 (11754022_s_at) / Fold change /veh GAP43 (11754022_s_at) / RFU A4GNT (11735810_at) / Fold change /veh A4GNT (11735810_at) / RFU PRB3 (11715151_x_at) / Fold change /veh PRB3 (11715151_x_at) / RFU TUBB4B (11761932_at) / Fold change /veh TUBB4B (11761932_at) / RFU CAPN14 (11732068_a_at) / Fold change /veh CAPN14 (11732068_a_at) / RFU TMCC2 (11721928_a_at) / Fold change /veh TMCC2 (11721928_a_at) / RFU IRGQ (11745062_a_at) / Fold change /veh IRGQ (11745062_a_at) / RFU FAM174B (11720279_a_at) / Fold change /veh FAM174B (11720279_a_at) / RFU TMPRSS4 (11748680_a_at) / Fold change /veh TMPRSS4 (11748680_a_at) / RFU FAM212B (11763350_a_at) / Fold change /veh FAM212B (11763350_a_at) / RFU PLEKHG5 (11743358_a_at) / Fold change /veh PLEKHG5 (11743358_a_at) / RFU ZSCAN30 (11745921_a_at) / Fold change /veh ZSCAN30 (11745921_a_at) / RFU CMKLR1 (11741424_a_at) / Fold change /veh CMKLR1 (11741424_a_at) / RFU LOC101060620 /// MAPK8IP1 (11723275_at) / Fold change /veh LOC101060620 /// MAPK8IP1 (11723275_at) / RFU SPTSSB (11747773_x_at) / Fold change /veh SPTSSB (11747773_x_at) / RFU PRSS12 (11739890_at) / Fold change /veh PRSS12 (11739890_at) / RFU BIN1 (11741810_x_at) / Fold change /veh BIN1 (11741810_x_at) / RFU WNT11 (11732464_a_at) / Fold change /veh WNT11 (11732464_a_at) / RFU C10orf10 (11716521_a_at) / Fold change /veh C10orf10 (11716521_a_at) / RFU C5orf56 (11738089_at) / Fold change /veh C5orf56 (11738089_at) / RFU CYB561 (11721691_x_at) / Fold change /veh CYB561 (11721691_x_at) / RFU ANKRD19P (11752326_a_at) / Fold change /veh ANKRD19P (11752326_a_at) / RFU OR2T12 /// OR2T33 /// OR2T8 (11738714_s_at) / Fold change /veh OR2T12 /// OR2T33 /// OR2T8 (11738714_s_at) / RFU VCAN (11748164_a_at) / Fold change /veh VCAN (11748164_a_at) / RFU JSRP1 (11732532_at) / Fold change /veh JSRP1 (11732532_at) / RFU KRTAP10-11 (11738290_x_at) / Fold change /veh KRTAP10-11 (11738290_x_at) / RFU MYO3A (11730013_a_at) / Fold change /veh MYO3A (11730013_a_at) / RFU EBF3 (11725865_a_at) / Fold change /veh EBF3 (11725865_a_at) / RFU CAMK2N1 (11719241_x_at) / Fold change /veh CAMK2N1 (11719241_x_at) / RFU C5orf56 (11738088_a_at) / Fold change /veh C5orf56 (11738088_a_at) / RFU OLFML3 (11715873_a_at) / Fold change /veh OLFML3 (11715873_a_at) / RFU LOC100653217 /// NTM (11731650_a_at) / Fold change /veh LOC100653217 /// NTM (11731650_a_at) / RFU MAPK11 (11762145_a_at) / Fold change /veh MAPK11 (11762145_a_at) / RFU FIZ1 (11724087_x_at) / Fold change /veh FIZ1 (11724087_x_at) / RFU OASL (11726364_x_at) / Fold change /veh OASL (11726364_x_at) / RFU SOX15 (11748057_x_at) / Fold change /veh SOX15 (11748057_x_at) / RFU CD79A (11719716_a_at) / Fold change /veh CD79A (11719716_a_at) / RFU HIST1H1D (11736915_at) / Fold change /veh HIST1H1D (11736915_at) / RFU CASKIN2 (11723855_a_at) / Fold change /veh CASKIN2 (11723855_a_at) / RFU LOC730098 (11760151_x_at) / Fold change /veh LOC730098 (11760151_x_at) / RFU OR4N2 (11742367_at) / Fold change /veh OR4N2 (11742367_at) / RFU PRRT2 (11749266_a_at) / Fold change /veh PRRT2 (11749266_a_at) / RFU SNX32 (11753110_a_at) / Fold change /veh SNX32 (11753110_a_at) / RFU CDHR5 (11726645_a_at) / Fold change /veh CDHR5 (11726645_a_at) / RFU RCAN1 (11760418_a_at) / Fold change /veh RCAN1 (11760418_a_at) / RFU FAM167A (11723789_a_at) / Fold change /veh FAM167A (11723789_a_at) / RFU FAM26E (11764081_at) / Fold change /veh FAM26E (11764081_at) / RFU ISYNA1 (11749810_s_at) / Fold change /veh ISYNA1 (11749810_s_at) / RFU ACY1 (11761880_at) / Fold change /veh ACY1 (11761880_at) / RFU 11764098_at / Fold change /veh 11764098_at / RFU SAMD14 (11745864_x_at) / Fold change /veh SAMD14 (11745864_x_at) / RFU NPB (11741838_a_at) / Fold change /veh NPB (11741838_a_at) / RFU TMPRSS6 (11731388_a_at) / Fold change /veh TMPRSS6 (11731388_a_at) / RFU KRTAP10-2 (11738614_at) / Fold change /veh KRTAP10-2 (11738614_at) / RFU ARHGAP8 /// PRR5-ARHGAP8 (11727945_x_at) / Fold change /veh ARHGAP8 /// PRR5-ARHGAP8 (11727945_x_at) / RFU KRTAP5-7 /// NADSYN1 (11734609_at) / Fold change /veh KRTAP5-7 /// NADSYN1 (11734609_at) / RFU RASL12 (11751679_a_at) / Fold change /veh RASL12 (11751679_a_at) / RFU CDKN2B (11736163_a_at) / Fold change /veh CDKN2B (11736163_a_at) / RFU PRF1 (11729649_at) / Fold change /veh PRF1 (11729649_at) / RFU, ZNF638 /// ZNF638-IT1 / Fold change vs veh, ZNF638 /// ZNF638-IT1 / RFU, PANK3 / Fold change vs veh, PANK3 / RFU, SH3YL1 / Fold change vs veh, SH3YL1 / RFU, ZEB2 / Fold change vs veh, ZEB2 / RFU, NRIP1 / Fold change vs veh, NRIP1 / RFU, PTTG1IP / Fold change vs veh, PTTG1IP / RFU, CAPN2 / Fold change vs veh, CAPN2 / RFU, MED14 / Fold change vs veh, MED14 / RFU, SNORA58 / Fold change vs veh, SNORA58 / RFU, C1orf63 / Fold change vs veh, C1orf63 / RFU, LRRFIP1 / Fold change vs veh, LRRFIP1 / RFU, NDUFAF7 / Fold change vs veh, NDUFAF7 / RFU, SLC12A2 / Fold change vs veh, SLC12A2 / RFU, IBTK / Fold change vs veh, IBTK / RFU, ESF1 / Fold change vs veh, ESF1 / Fold change vs veh, TMEM50B / RFU, TAOK1 / Fold change vs veh, TAOK1 / RFU, ACBD3 / Fold change vs veh, ACBD3 / RFU, TMA16 / Fold change vs veh, TMA16 / RFU, RWDD3 / Fold change vs veh, RWDD3 / RFU, BCAT1 / Fold change vs veh, BCAT1 / RFU, EDEM3 / Fold change vs veh, EDEM3 / RFU, TMEM33 / Fold change vs veh, TMEM33 / RFU, WDR75 / Fold change vs veh, WDR75 / RFU, AHCTF1 / Fold change vs veh, AHCTF1 / RFU, TFRC / Fold change vs veh, TFRC / RFU, ZDHHC17 / Fold change vs veh, ZDHHC17 / RFU, NOM1 / Fold change vs veh, NOM1 / RFU, ARL8B / Fold change vs veh, ARL8B / RFU, ZBTB11 / Fold change vs veh, ZBTB11 / RFU, TAMM41 / Fold change vs veh, TAMM41 / RFU, KIAA1704 /// LOC100996395 / Fold change vs veh, KIAA1704 /// LOC100996395 / RFU, ING1 / Fold change vs veh, ING1 / RFU, TRMT61B / Fold change vs veh, TRMT61B / RFU, FUBP3 / Fold change vs veh, FUBP3 / RFU, TP53 / Fold change vs veh, TP53 / RFU, TNKS2 / Fold change vs veh, TNKS2 / RFU, ZFP14 / Fold change vs veh, ZFP14 / RFU, ACTR2 / Fold change vs veh, ACTR2 / RFU, PPP3R1 / Fold change vs veh, PPP3R1 / RFU, PIK3R1 / Fold change vs veh, PIK3R1 / RFU, HNRNPA1 / Fold change vs veh, HNRNPA1 / RFU, RNF170 / Fold change vs veh, RNF170 / RFU, ZNF28 / Fold change vs veh, ZNF28 / RFU, RNGTT / Fold change vs veh, RNGTT / RFU, OGT / Fold change vs veh, OGT / RFU, BRD1 / Fold change vs veh, BRD1 / RFU, MARS / Fold change vs veh, MARS / RFU, ZNF655 / Fold change vs veh, ZNF655 / RFU, FAHD1 / Fold change vs veh, FAHD1 / RFU, BDP1 / Fold change vs veh, BDP1 / RFU, LRRCC1 / Fold change vs veh, LRRCC1 / RFU, ARID1A / Fold change vs veh, ARID1A / RFU, ZNF146 / Fold change vs veh, ZNF146 / RFU, ZNF330 / Fold change vs veh, ZNF330 / RFU, GPN3 / Fold change vs veh, GPN3 / RFU, C9orf123 / Fold change vs veh, C9orf123 / RFU, N4BP2L2 / Fold change vs veh, N4BP2L2 / RFU, ARFIP1 / Fold change vs veh, ARFIP1 / RFU, FAM179B / Fold change vs veh, FAM179B / RFU, BCL10 / Fold change vs veh, BCL10 / RFU, UHRF1BP1L / Fold change vs veh, UHRF1BP1L / RFU, BET1 / Fold change vs veh, BET1 / RFU, CNOT2 / Fold change vs veh, CNOT2 / RFU, ZNF268 / Fold change vs veh, ZNF268 / Fold change vs veh, ZNF507 / RFU, DGCR2 / Fold change vs veh, DGCR2 / RFU, WDSUB1 / Fold change vs veh, WDSUB1 / Fold change vs veh, HSP90B1 /// MIR3652 / RFU, ADSS / Fold change vs veh, ADSS / RFU, GK / Fold change vs veh, GK / RFU, ZNF148 / Fold change vs veh, ZNF148 / RFU, TAF9 / Fold change vs veh, TAF9 / RFU, SLC1A5 / Fold change vs veh, SLC1A5 / RFU, SLMO2 / Fold change vs veh, SLMO2 / RFU, ABCC4 / Fold change vs veh, ABCC4 / RFU, LOC101060439 /// RAP1B / Fold change vs veh, LOC101060439 /// RAP1B / RFU, RFX7 / Fold change vs veh, RFX7 / RFU, GTPBP10 / Fold change vs veh, GTPBP10 / RFU, CNEP1R1 / Fold change vs veh, CNEP1R1 / RFU, BIVM-ERCC5 /// ERCC5 / Fold change vs veh, BIVM-ERCC5 /// ERCC5 / RFU, ILF3 / Fold change vs veh, ILF3 / RFU 11762660_at / Fold change /veh 11762660_at / RFU VCAN (11757783_s_at) / Fold change /veh VCAN (11757783_s_at) / RFU DDX43 (11728927_at) / Fold change /veh DDX43 (11728927_at) / RFU KRT8 (11758188_x_at) / Fold change /veh KRT8 (11758188_x_at) / RFU NKD1 (11759106_at) / Fold change /veh NKD1 (11759106_at) / RFU SRD5A1 (11742802_a_at) / Fold change /veh SRD5A1 (11742802_a_at) / RFU TPSAB1 /// TPSB2 (11721975_s_at) / Fold change /veh TPSAB1 /// TPSB2 (11721975_s_at) / RFU GSTM3 (11746129_a_at) / Fold change /veh GSTM3 (11746129_a_at) / RFU IL23R (11737362_x_at) / Fold change /veh IL23R (11737362_x_at) / RFU TMEM51 (11727254_a_at) / Fold change /veh TMEM51 (11727254_a_at) / RFU PIWIL2 (11732686_x_at) / Fold change /veh PIWIL2 (11732686_x_at) / RFU ORM1 (11744905_x_at) / Fold change /veh ORM1 (11744905_x_at) / RFU CCDC152 (11743942_at) / Fold change /veh CCDC152 (11743942_at) / RFU ECM1 (11717891_a_at) / Fold change /veh ECM1 (11717891_a_at) / RFU IL23R (11748794_a_at) / Fold change /veh IL23R (11748794_a_at) / RFU TNFAIP8L3 (11732012_x_at) / Fold change /veh TNFAIP8L3 (11732012_x_at) / RFU MBOAT4 (11741988_at) / Fold change /veh MBOAT4 (11741988_at) / RFU 11764193_at / Fold change /veh 11764193_at / RFU TMEM53 (11763286_at) / Fold change /veh TMEM53 (11763286_at) / RFU MAGEB2 (11727129_at) / Fold change /veh MAGEB2 (11727129_at) / RFU TMEM200A (11744735_a_at) / Fold change /veh TMEM200A (11744735_a_at) / RFU CCDC152 (11751479_a_at) / Fold change /veh CCDC152 (11751479_a_at) / RFU FAM211A (11726209_a_at) / Fold change /veh FAM211A (11726209_a_at) / RFU RGS16 (11746705_a_at) / Fold change /veh RGS16 (11746705_a_at) / RFU VCAN (11755009_s_at) / Fold change /veh VCAN (11755009_s_at) / RFU RHOB (11743442_s_at) / Fold change /veh RHOB (11743442_s_at) / RFU RGS16 (11720943_a_at) / Fold change /veh RGS16 (11720943_a_at) / RFU RGS16 (11720944_at) / Fold change /veh RGS16 (11720944_at) / RFU, VPS4B / Fold change vs veh, VPS4B / RFU, CREB1 / Fold change vs veh, CREB1 / RFU, DNAJC13 / Fold change vs veh, DNAJC13 / RFU, GNAQ / Fold change vs veh, GNAQ / RFU, CDK5R1 / Fold change vs veh, CDK5R1 / RFU, ZRANB3 / Fold change vs veh, ZRANB3 / RFU, CUL4A / Fold change vs veh, CUL4A / RFU, CCNY / Fold change vs veh, CCNY / RFU, UFL1 / Fold change vs veh, UFL1 / RFU, COG3 / Fold change vs veh, COG3 / RFU, DIAPH2 / Fold change vs veh, DIAPH2 / RFU, SKA2 / Fold change vs veh, SKA2 / RFU, AFF3 / Fold change vs veh, AFF3 / RFU, LMF1 / Fold change vs veh, LMF1 / RFU, IPO11 / Fold change vs veh, IPO11 / RFU, DFFB / Fold change vs veh, DFFB / RFU, FOXP1 / Fold change vs veh, FOXP1 / RFU, CARD8 / Fold change vs veh, CARD8 / RFU, STRN3 / Fold change vs veh, STRN3 / RFU, ADK / Fold change vs veh, ADK / RFU, RASSF2 / Fold change vs veh, RASSF2 / RFU, WIPF1 / Fold change vs veh, WIPF1 / RFU, LARP1B / Fold change vs veh, LARP1B / RFU, RASA1 / Fold change vs veh, RASA1 / RFU, RB1 / Fold change vs veh, RB1 / RFU, PPFIA1 / Fold change vs veh, PPFIA1 / RFU, MAT2A / Fold change vs veh, MAT2A / RFU, CCT5 / Fold change vs veh, CCT5 / RFU, WDR92 / Fold change vs veh, WDR92 / RFU, CUX1 / Fold change vs veh, CUX1 / RFU, TTC7A / Fold change vs veh, TTC7A / RFU, TMEM135 / Fold change vs veh, TMEM135 / RFU, DEPTOR / Fold change vs veh, DEPTOR / RFU, CPM / Fold change vs veh, CPM / RFU, DNAJB6 / Fold change vs veh, DNAJB6 / RFU, CACNA2D3 / Fold change vs veh, CACNA2D3 / RFU, DTX4 / Fold change vs veh, DTX4 / RFU, TFCP2 / Fold change vs veh, TFCP2 / RFU, GMCL1 /// GMCL1P1 / Fold change vs veh, GMCL1 /// GMCL1P1 / RFU, AEBP2 / Fold change vs veh, AEBP2 / RFU, SNHG1 /// SNORD22 /// SNORD25 /// SNORD26 /// SNORD27 /// SNORD28 /// SNORD29 /// SNORD31 / Fold change vs veh, SNHG1 /// SNORD22 /// SNORD25 /// SNORD26 /// SNORD27 /// SNORD28 /// SNORD29 /// SNORD31 / Fold change (Aza/veh), C12orf56 (ProbeSet 11735607_a_at) / Fold change (ACY-1035/veh), C12orf56 (ProbeSet 11735607_a_at) / Fold change (Aza/veh), FGFR1OP (ProbeSet 11751329_s_at) / Fold change (ACY-1035/veh), FGFR1OP (ProbeSet 11751329_s_at) / Fold change (Aza/veh), VPS36 (ProbeSet 11739960_a_at) / Fold change (ACY-1035/veh), VPS36 (ProbeSet 11739960_a_at) / RFU SYPL1 (11715823_x_at) / Fold change /veh SYPL1 (11715823_x_at) / RFU IGFBP7 (11715501_s_at) / Fold change /veh IGFBP7 (11715501_s_at) / RFU REEP3 (11722064_at) / Fold change /veh REEP3 (11722064_at) / RFU IGLL1 (11728026_x_at) / Fold change /veh IGLL1 (11728026_x_at): dose or concentration left out as unconfirmed
Details: ProbeSet 11739106_a_at; LIST B

Nc1ncn([C@@H]2O[C@H](CO)[C@@H](O)[C@H]2O)c(=O)n1 [azacitidine]
RFU, TMEM33: 268.42 RFU

Source: paper PMC5218480 (PLoS ONE, 2017)
